The text below walks through data of US8426569B2, “DNA capable of being amplified by PCR with high selectivity and high efficiency” (Riken, priority 2008, dated 2013).

Molecules are shown by their SMILES.

Assay [1] addresses T1, DeepVent DNA polymerase (Pyrococcus sp., UniProt Q51334, DEL493-1029). The assay is classed as biochemical.
The target in assay [2] is T1, DeepVent DNA polymerase. The assay is classed as biochemical. The source holds these as a separate data set.
Assay [3] deals with Klenow fragment of DNA polymerase I (KF exo-) (Escherichia coli, UniProt P00582, D355A/E357A).
Klenow fragment of DNA polymerase I (KF exo-), sequence (P00582 324-928 D355A/E357A limits assumed): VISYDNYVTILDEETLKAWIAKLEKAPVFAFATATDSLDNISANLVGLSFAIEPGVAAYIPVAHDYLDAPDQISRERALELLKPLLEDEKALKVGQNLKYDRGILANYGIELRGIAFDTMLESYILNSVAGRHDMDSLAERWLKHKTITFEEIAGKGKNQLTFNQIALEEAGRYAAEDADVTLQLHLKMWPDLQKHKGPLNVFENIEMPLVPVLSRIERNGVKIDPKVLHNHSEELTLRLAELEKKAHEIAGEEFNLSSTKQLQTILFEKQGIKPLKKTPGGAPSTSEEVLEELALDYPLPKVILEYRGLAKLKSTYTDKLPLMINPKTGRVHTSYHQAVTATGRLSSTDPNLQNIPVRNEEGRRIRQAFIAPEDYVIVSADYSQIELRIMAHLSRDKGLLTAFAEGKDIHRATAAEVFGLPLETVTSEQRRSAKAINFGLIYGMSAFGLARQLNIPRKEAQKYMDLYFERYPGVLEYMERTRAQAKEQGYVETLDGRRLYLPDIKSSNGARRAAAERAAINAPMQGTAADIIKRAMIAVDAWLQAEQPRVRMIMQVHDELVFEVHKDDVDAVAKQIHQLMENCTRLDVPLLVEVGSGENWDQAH

T1 sequence (Q51334 with tags, fused parts or gaps DEL493-1029): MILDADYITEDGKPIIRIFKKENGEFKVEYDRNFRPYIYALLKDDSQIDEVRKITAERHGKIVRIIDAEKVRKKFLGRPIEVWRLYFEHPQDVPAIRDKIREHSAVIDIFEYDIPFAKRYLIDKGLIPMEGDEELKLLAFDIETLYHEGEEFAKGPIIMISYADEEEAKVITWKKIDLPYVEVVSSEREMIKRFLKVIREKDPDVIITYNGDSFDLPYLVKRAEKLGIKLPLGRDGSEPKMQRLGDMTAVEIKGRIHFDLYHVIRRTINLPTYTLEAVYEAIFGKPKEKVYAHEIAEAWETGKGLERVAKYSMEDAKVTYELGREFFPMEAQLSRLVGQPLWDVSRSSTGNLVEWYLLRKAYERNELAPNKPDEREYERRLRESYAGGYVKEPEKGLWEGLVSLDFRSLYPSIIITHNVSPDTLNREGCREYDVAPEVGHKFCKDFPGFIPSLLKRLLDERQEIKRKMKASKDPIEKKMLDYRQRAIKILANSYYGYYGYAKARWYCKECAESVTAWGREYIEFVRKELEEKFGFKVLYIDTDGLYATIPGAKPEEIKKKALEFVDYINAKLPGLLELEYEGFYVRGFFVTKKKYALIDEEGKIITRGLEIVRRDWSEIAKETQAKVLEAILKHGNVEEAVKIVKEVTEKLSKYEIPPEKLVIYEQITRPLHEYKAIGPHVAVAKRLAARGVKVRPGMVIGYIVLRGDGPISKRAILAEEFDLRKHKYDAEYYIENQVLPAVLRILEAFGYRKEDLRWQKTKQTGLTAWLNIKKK

As for `NCCCCCC(=O)NCC#Cc1cc([N+](=O)[O-])n([C@H]2C[C@H](O)[C@@H](COP(=O)(O)OP(=O)(O)OP(=O)(O)O)O2)c1` [NH2-hx-dPnTP, 1-(2-deoxy-β-D-ribofuranosyl)-4-[3-(6-amino-hexanamide)-1-propynyl]-2-nitropyrrole 5′-triphosphate], in assay [1], the “amplification of the DNA fragment containing Ds” value was “about 10^8 times” and the “conservation of the unnatural base Ds in DNA (sequencing analysis)” value was “almost completely conserved”. Moreover, in assay [2], the “conservation of both two sites of the unnatural base Ds in DNA (sequencing pattern analysis)” value was “almost completely conserved”. Besides, in assay [3], the “incorporation efficiency into Ds relative to that of the Pn substrate” value is “about twice” and the “incorporation efficiency into natural bases in the template strand” value was “lower than the incorporation efficiency into Ds”.
